Reference: article PMC10606834, “Is the Neuropeptide PEN a Ligand of GPR83?” (International Journal of Molecular Sciences, 2023)

Experiments:
[1] = system: GPR83 and deletion variant GPR83del (HEK293 clones; wild-type HEK293 as comparison); test: Intracellular calcium mobilization, HEK293 cells; format: cell-based, human; conditions: 10 µM PEN; co mix = 100 µM carbachol, 100 µM ATP, 40 µM dimaprit; 50 µM ionomycin; HEK293 wild-type, GPR83 or GPR83del clones; Fluo4-AM fluorescence, compared with buffer; duplicate, repeated at least two times
Description: (§1) As activation of many GPCRs is coupled to calcium mobilization from intracellular stores, GPR83 was probed for ligand-dependent calcium release. Wild-type HEK293 cells and HEK293 clones overexpressing either full-length GPR83 or the N-terminal deletion variant GPR83del were exposed to buffer or one of two independent synthesis batches (PEN #1 and PEN #2) of the neuropeptide PEN, while calcium indicator fluorescence was recorded. […] Calcium release was also tested in a second cell line, osteosarcoma U2OS cells, using various stably expressing clones. […] Therefore, HEK293 cells transfected with Gα16 were employed to investigate a potential GPR83-dependent calcium mobilization with PEN. […] A number of GPCRs show ligand-independent basal calcium activity. However, in an experiment comparing basal calcium levels in wild-type HEK293 cells and in HEK293 clones overexpressing four different variants of GPR83, they were not found to be different (Figure 2D).
(§2) Figure 2 Investigation of ligand-dependent and ligand-independent intracellular calcium mobilization. (A) Wild-type HEK293 cells and HEK293 cell clones overexpressing either GPR83 or the deletion variant GPR83del were incubated with either buffer or the specified ligand (10 µM PEN or co mix = 100 µM carbachol, 100 µM ATP, 40 µM dimaprit, or 50 µM ionomycin). (B) Calcium indicator fluorescence intensity traces over 60 s of various U2OS cell clones overexpressing untagged or HA-tagged GPR83 or the deletion variant GPR83del before and after the addition of buffer or ligand (co mix as in (A) or 50 µM ionomycin or 10 µM PEN). […]
(§3) Cells were seeded at 50,000 cells/well in a poly-D-lysine coated 96-well black well/clear bottom plate (BD Falcon, Franklin Lakes, NJ, USA) and cultured overnight. […] Fluorescence was recorded with the fluorescence imaging plate reader CellLux (Perkin Elmer, Waltham, MA, USA) simultaneously in all wells at an excitation wavelength of 488 nm and emission wavelength of 510 nm in 1.5 s intervals over a period of 4 min. Fluorescence data were generated in duplicate, and experiments were repeated at least two times.

[2] = system: GPR83 and GPR83del with Gα16 (HEK293); test: Intracellular calcium mobilization, Gα16-transfected HEK293 cells; format: cell-based, human; conditions: 10 µM PEN, 100 µM carbachol, 100 µM ATP, Fluo4-AM fluorescence, duplicate, repeated at least two times
Description: as §1, §2, §3

**Q.** Which calcium signal [1] does the source give for `C[C@H](CCC(=O)O)C[C@H](C)C[C@H](C)C(=O)/C=C(\O)[C@H](C)C[C@H](C)C/C=C/[C@@H](C)[C@@H](O)[C@@H](C)[C@@H](O)C[C@@H]1CC[C@@](C)([C@H]2CC[C@@](C)([C@@H](C)O)O2)O1` [ionomycin, reference compound] here?
**A.** clear calcium signal above buffer background

**Q.** For `C[N+](C)(C)CCOC(N)=O` [carbachol], which calcium signal [2] is on record?
**A.** strongly enhanced the calcium signal

**Q.** Which calcium signal [2] does the source give for `Nc1ncnc2c1ncn2[C@@H]1O[C@H](COP(=O)(O)OP(=O)(O)OP(=O)(O)O)[C@@H](O)[C@H]1O` [ATP] here?
**A.** strongly enhanced the calcium signal
